According to ChEMBL document CHEMBL5728428, “Bicyclic lactams and methods of use thereof” (2021):

Molecular target: T1, Receptor-interacting serine/threonine-protein kinase 1 (Homo sapiens, UniProt Q13546)
T1 sequence (Q13546 whole entry): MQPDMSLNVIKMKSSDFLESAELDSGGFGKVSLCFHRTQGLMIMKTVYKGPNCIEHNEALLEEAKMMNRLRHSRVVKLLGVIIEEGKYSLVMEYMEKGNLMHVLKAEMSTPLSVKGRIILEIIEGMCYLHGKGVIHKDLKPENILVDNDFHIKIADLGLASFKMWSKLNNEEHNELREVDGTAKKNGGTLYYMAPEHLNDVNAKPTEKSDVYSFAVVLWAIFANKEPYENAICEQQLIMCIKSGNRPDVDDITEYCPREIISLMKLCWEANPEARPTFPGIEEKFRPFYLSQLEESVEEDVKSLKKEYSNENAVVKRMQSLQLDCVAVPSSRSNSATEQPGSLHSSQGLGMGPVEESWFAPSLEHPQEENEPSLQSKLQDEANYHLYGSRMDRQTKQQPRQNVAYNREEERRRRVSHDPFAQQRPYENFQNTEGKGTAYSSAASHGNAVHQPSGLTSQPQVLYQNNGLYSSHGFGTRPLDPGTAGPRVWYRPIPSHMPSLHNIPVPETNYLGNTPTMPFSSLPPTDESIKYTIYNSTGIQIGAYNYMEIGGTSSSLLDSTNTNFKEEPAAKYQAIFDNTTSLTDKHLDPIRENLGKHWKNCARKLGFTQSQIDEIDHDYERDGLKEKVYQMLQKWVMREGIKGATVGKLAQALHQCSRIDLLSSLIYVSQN
Assay: Biochemical Assay: The ability of the receptor interacting protein kinase (RIPK1) to catalyze the hydrolysis of adenosine-5′-triphosphate (ATP) is monitored using the Transcreener ADP (adenosine-5′-diphosphate) assay (BellBrook Labs).

CN1C(=O)[C@@H](NC(=O)c2n[nH]c3c2CC(C)(C)OC3)COc2ccccc21
Ki: 469 nM
